Results: patent US5959145A, “Fatty acid analog enzyme substrates” (priority 1993, dated 1999)
Entries after “also recorded” stand apart in the source; their conditions may differ. No end group written: not given here. *: point of attachment. 11‑(ethylthio)undecanoyl = CCSCCCCCCCCCCC(=O)*; 125I = [125I]*

Legend:
[1] = C18 reverse phase HPLC elution of fatty acyl peptides (hydrophobicity); format: physicochemical; conditions: for elution earlier than corresponding myristoyl-peptide: C-18 reverse phase HPLC, FIG. 2; for Elution Time: C18 reverse phase HPLC, acyl derivative of GNAAS[125I]YRR, Table 2
Method: The fatty acid analog acyl-peptide eluted 7 minutes earlier than the corresponding myristoyl peptide. The free peptide elutes in the void volume (3-5minutes).
This difference was evident when the HPLC elution characteristics of fatty acyl peptides were examined. The elution time of a particular acyl-peptide depends strongly on the peptide sequence as well as on the acyl chain attached to that peptide. For example, the elution times of fatty acyl derivatives of GNAAAARR are (in minutes) decanoic acid, 9; dodecanoic acid, 18; myristic acid, 24; and palmitic acid, 30. Elution times for fatty acyl derivatives of GNAAS[^125 I]YRR are 23 and 28 minutes for C12 and C14 fatty acids, respectively (FIG. 2). […] Such a change could alter the biological activity of myristoyl proteins.
(§1) For these Examples, each analog synthesized is characterized by ^1 H and ^13 C NMR as well as mass spectroscopy. The analogs are then characterized kinetically as NMT substrates. Briefly, fatty acid analogs are converted to their CoA esters with Pseudomonas CoA ligase and incubated with the iodinated peptide GNAAS[^125 I]YRR and a source of NMT. […] The radiolabelled peptide is then used at concentrations which will lead to 50% enzyme saturation (i.e., at its Km) for the determination of fatty acid analog kinetic characteristics. Representative analogs with sulfur or oxygen in the backbone of the fatty acid chain serve as good substrates for NMT in vitro and will compete for incorporation of ^3 H labelled myri-state into yeast proteins in vivo. In addition, these analogs differ markedly in hydrophobicity from myri-state as measured both by C18 reverse phase HPLC elution profiles and by 2-octanol/water partition coefficients. The analog CH3 O(CH2)11 COOH, for example, partitions into water 20 fold better than myristate. It is believed that these analogs will be incorporated into mammalian acylproteins in vivo and that their incorporation into these proteins will drastically alter protein processing or targeting. It is further believed that the incorporation of fatty acid analogs of both myristate and palmitate into ester linked and phosphatidyl inositol glycan linked acylproteins will also dramatically alter their properties. Since many viral proteins and oncogenes are acylated, these compounds represent a new class of potential antiviral and antineoplastic agents.

wheat germ NMT = assay: in vitro myristoylation assay with partially purified wheat germ NMT; format: biochemical
Method: Myristoyl CoA and fatty acid analog CoA were generated by incubation of the fatty acid or analog with CoA, ATP and CoA ligase. This reaction mixture was added to wheat germ NMT and Gly-Asn-Ala-Ala-Ser- [^125 I]Tyr-Arg-Arg in the presence of 0.03% Triton® X-100. Reaction products were characterized by reverse phase HPLC and gamma counting.
The invention is illustrated in greater detail in the following Examples 1 to 15 by the synthesis and testing of representative compounds of the invention as myristoylating enzyme substrates. Accordingly, the invention is first illustrated in Examples 1 to 5 by the chemical synthesis of a sulfur-containing analog of myristic acid, namely 11-(ethylthio)undecanoicacid, CH3 CH2 --S--(CH2)10 COOH, which is then tested in vitro as a wheat germ NMT substrate. Wheat germ NMT is a protein similar to yeast NMT. The purity and chemical identity of the synthesized compound were examined using ^1 H and ^13 C NMR as well as mass spectroscopy. The assay that was used to characterize the substrate specificity of wheat germ NMT measures the rate of attachment of a radiolabelled fatty acid to an unlabelled peptide. The fatty acid analog synthesized was nonradioactive.
Characterization of Partially Purified Wheat Germ NMT--Assays for NMT activity were performed using a procedure detailed previously by Towler and Glaser, Proc. Natl. Acad. Sci. USA 83, 2812-2816 (1986). Briefly, the in vitro assay measures the transfer of radiolabelled fatty acid from acyl CoA to a synthetic peptide substrate. The acylpeptide product is identified by reverse phase HPLC. Time and enzyme dependence were evaluated by varying the reaction time or the enzyme concentration. […] Fatty acid specificity was examined essentially as described by Towler et al., J. Biol. Chem. 262, 1030-1036 (1987), except that the peptide Gly-Ser-Ser-Lys-Ser-Lys-Pro-Lys rather than Gly-Asn-Ala-Ala-Ala-Ala-Arg-Arg was used to compare palmitate and myristate utilization by wheat germ NMT. This was necessary because of the presence of a large, peptide-independent peak which co-eluted with a palmitoyl-Gly-Asn-Ala-Ala-Ala-Ala-Arg-Arg standard. [^3 H]Palmitate and [^3 H]myristate were used in this comparison. [^14 C]fatty acids were used to compare C-10, C-12 and C-14 chain lengths. Fatty acyl CoA concentrations in these assays were determined by a modification of the method of Hosaka et al., Methods Enzymol. 71, 325-333 (1981).
Characterization of the Fatty Acid Analog--Gly-Asn-Ala-Ala-Ser-[^125 I]Tyr-Arg-Arg as prepared in Example 2, above, was tested in an in vitro myristoylation system which was modified from that used with radiolabelled fatty acids. […] 20-fold more wheat germ NMT (480-fold purified as in Example 3, above) was used for these assays than for assays which employed [^3 H] myristate. […] Double reciprocal plots were generated for the iodinated peptide with both myristic acid and the sulfur analog by altering the peptide concentration in the presence of a constant amount of fatty acid or analog. […] The assays contained 0.03% Triton X-100 to maintain the solubility of the fatty acids.

yeast NMT = molecular target: T1, yeast NMT (Saccharomyces cerevisiae, UniProt P14743); assay: kinetic characterisation of fatty acid analogs as yeast NMT substrates; format: biochemical; conditions: for Peptide Vm: peptide GNAAS[125I]YRR varied, fatty acid analog at 15 μM; for Peptide Vm / Acyl CoA Vm: myristate control = 100%; for Acyl CoA Vm / Km: radiolabelled peptide at its Km, analog varied; for Km: read-out: Acyl CoA Km
T1 construct: 11,000-fold purified preparation of yeast NMT; endogenous in cells; host or cells: yeast (enzyme purified from yeast, 11,000-fold)
T1 sequence (P14743 1-455): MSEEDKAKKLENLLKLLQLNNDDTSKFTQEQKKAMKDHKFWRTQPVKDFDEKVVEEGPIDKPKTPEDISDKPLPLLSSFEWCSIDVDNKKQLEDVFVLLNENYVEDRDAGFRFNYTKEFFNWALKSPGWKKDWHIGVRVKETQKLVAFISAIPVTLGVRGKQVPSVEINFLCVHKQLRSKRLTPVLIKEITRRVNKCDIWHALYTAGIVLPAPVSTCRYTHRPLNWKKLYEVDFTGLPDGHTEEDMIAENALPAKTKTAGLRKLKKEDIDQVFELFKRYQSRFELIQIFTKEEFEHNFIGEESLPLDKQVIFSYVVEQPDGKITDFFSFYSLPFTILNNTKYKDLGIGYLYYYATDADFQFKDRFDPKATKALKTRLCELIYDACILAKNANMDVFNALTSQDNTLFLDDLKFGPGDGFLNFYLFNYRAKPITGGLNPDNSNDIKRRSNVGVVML
Source text: Similar results were obtained using an 11,000-fold purified preparation of yeast NMT [Towler et al., Proc. Natl. Acad. Sci. USA 84, 2708-2712 (1987)].
Other illustrative examples of the oxy- and thio-substituted fatty acid analog substrate compounds of the invention were synthesized in Examples 6 to 14 and tested in Example 15 as substrates for the yeast NMT.
as §1

[2] = CoA ester, 40 μM iodinated peptide, 0.03% Triton X-100, FIG. 1

Row | Compound | Peptide Vm (yeast NMT) [%] | Acyl CoA Vm (yeast NMT) [%] | Km (yeast NMT) [µM] | Elution Time [1] [min] | further results
1 | 11-(ethylthio)undecanoyl-GNAAS[^125 I]YRR ({11‑(ethylthio)undecanoyl}-GNAASY(125I)RR) [fatty acid analog acyl-peptide formed by NMT from compound A and iodinated peptide GNAASYRR] | – | – | – | – | elution earlier than corresponding myristoyl-peptide [1]: seven; elution earlier than corresponding myristoyl-peptide ([1]; listed as 11-(ethylthio)undecanoyl-GNAASYRR[^125 I]): 7 min
2 | CCOCCCCCCCCCCC(=O)O [B, 11-(Ethoxy)undecanoic acid] | 62 | 64 | 1.8 | 12 | –
3 | CCCCOCCCCCCCCCCC(=O)O [Compound I, 11-(1-Butoxy)undecanoic acid] | 25 | 80 | 1 | 19 | effectiveness as NMT substrate, in words (yeast NMT): less effective
4 | COCCCCCCCCCCC(=O)O [D, 11-(Methoxy)undecanoic acid] | 232 | 163 | 6.9 | 12 to 13 | –
5 | C#CCOCCCCCCCCCC(=O)O [J, 10-(2-Propynoxy)decanoic acid] | 200 | 320 | 6.5 | 9 | –
6 | CCCCCCCCCC(=O)O [decanoic acid, reference compound] | – | – | – | – | elution time of fatty acyl derivative of GNAAAARR ([1]; reverse phase HPLC): 9 min
7 | CCCCCCCCCCCC(=O)O [dodecanoic acid, reference compound] | – | – | – | – | elution time of fatty acyl derivative of GNAAAARR ([1]; reverse phase HPLC): 18 min; elution time of fatty acyl derivative of GNAAS[125I]YRR ([1]; reverse phase HPLC, FIG. 2, text): 23 min
8 | CCCCCCCCCCCCCCCC(=O)O [palmitic acid, reference compound] | – | – | – | – | elution time of fatty acyl derivative of GNAAAARR ([1]; reverse phase HPLC): 30 min

Second part, led by results:

Row | Peptide Vm (yeast NMT) [%] | Acyl CoA Vm (yeast NMT) [%] | Km (yeast NMT) [µM] | Elution Time [1] [min] | Compound | further results
9 | 98 | 130 | 1.4 | 18 | CCSCCCCCCCCCCC(=O)O [A, 11-(Ethylthio)undecanoic acid] | Km for the analog relative to myristate (wheat germ NMT; [2]): 1.5 times higher; Vmax for the analog relative to myristate (wheat germ NMT; [2]): 3.5 times higher; Km (wheat germ NMT; fatty acid or analog at 5 μM, peptide varied, read-out: Km of peptide substrate Gly-Asn-Ala-Ala-Ser-[125I]Tyr-Arg-Arg): 7 µM; ability to act as a substrate for myristoyl CoA: protein N-myristoyl transferase (NMT) (wheat germ NMT; in words): leaves intact; substrate quality of CoA ester for wheat germ NMT compared with myristoyl CoA (wheat germ NMT; in words): at least as good a substrate; apparent maximal velocity relative to myristic acid (wheat germ NMT; peptide varied, fatty acid or analog at 5 μM): 2.3 times higher; Km compared with C14:0 fatty acid (yeast NMT; 11,000-fold purified yeast NMT): indistinguishable; Vmax compared with C14:0 fatty acid (yeast NMT; 11,000-fold purified yeast NMT): indistinguishable; hydrophobicity compared with myristic acid, in words [1]: decreases its hydrophobicity; also recorded: significantly different
10 | 213 | 160 | 1.5 | 24 | CCCCCCCCSCCCCC(=O)O [C, 5-(Octylthio)pentanoic acid] | –
11 | 335 | 675 | 1.6 | 16 | CCCCCCCCOCCCCC(=O)O [F, 5-(octyloxy)pentanoic acid] | –
12 | 245 | 250 | 1.5 | 18 | CCCSCCCCCCCCCC(=O)O [G, 10-(Propylthio)decanoic acid] | –
13 | 150 | 250 | 6.1 | 11 to 12 | CCCOCCCCCCCCCC(=O)O [H, 10-(Propoxy)decanoic acid] | –
